Reference: the supplement of paper PMC12698765
Where a name gives a salt, the structure may show the parent alone. ± gives the standard deviation of the averaged measurements.

Legend:
[1] = tested on: 409B2 hiPSC (iCRISPR Cas9, FRMD7 editing); assay: cell survival relative to solvent control (fold (ratio to mock)); higher = more surviving cells
Procedure: (§1)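 Subset screen of 55 drugs tested at 5 concentrations around the effective screening dose, in 409B2 iCRISPR Cas9 hiPSCs editing FRMD7 with a ssDNA donor. Drugs were applied for 24 h. Viability was read by resazurin and editing outcomes by amplicon sequencing (HDR, NHEJ <2 bp microhomology, MMEJ ≥2 bp microhomology). Values are relative to solvent mock controls; two biological replicates.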

[2] = tested on: 409B2 hiPSC (iCRISPR Cas9, FRMD7 editing); assay: NHEJ-attributed indel frequency relative to solvent control (fold (ratio to mock)); higher = more NHEJ outcomes
Procedure: as §1

[3] = tested on: 409B2 hiPSC (iCRISPR Cas9, FRMD7 editing); assay: MMEJ-attributed deletion frequency relative to solvent control (fold (ratio to mock)); higher = more MMEJ outcomes
Procedure: as §1

[4] = tested on: 409B2 hiPSC (iCRISPR Cas9, FRMD7 editing); assay: HDR (precise edit) frequency relative to solvent control (fold (ratio to mock)); higher = more homology-directed repair outcomes
Procedure: as §1

SMILES	cell survival ([1]; 20 nM)	cell survival ([1]; 50 nM)	cell survival ([1]; 200 nM)	cell survival ([1]; 500 nM)	NHEJ-attributed indel frequency ([2]; 20 nM)	NHEJ-attributed indel frequency ([2]; 50 nM)	NHEJ-attributed indel frequency ([2]; 200 nM)	NHEJ-attributed indel frequency ([2]; 500 nM)	MMEJ-attributed deletion frequency ([3]; 20 nM)	MMEJ-attributed deletion frequency ([3]; 50 nM)	MMEJ-attributed deletion frequency ([3]; 200 nM)	MMEJ-attributed deletion frequency ([3]; 500 nM)	HDR ([4]; 20 nM)	HDR ([4]; 50 nM)	HDR ([4]; 200 nM)	HDR ([4]; 500 nM)	cell survival ([1]; 2 nM)	cell survival ([1]; 5 nM)	NHEJ-attributed indel frequency ([2]; 2 nM)	NHEJ-attributed indel frequency ([2]; 5 nM)	also measured
CNCc1ccc(-c2[nH]c3cc(F)cc4c3c2CCNC4=O)cc1 [Rucaparib (free base)] (in DMSO)	0.789	0.744	0.487	0.291	0.952 ± 0.015	0.924 ± 0.013	0.853 ± 0.045	0.787 ± 0.054	1.04 ± 0.017	0.892 ± 0.2	0.869 ± 0.16	0.918 ± 0.076	1.13 ± 0.035	1.302 ± 0.0046	1.32 ± 0.17	1.26 ± 0.037	–	–	–	–	cell survival ([1]; 100 nM): 0.541; NHEJ-attributed indel frequency ([2]; 100 nM): 0.876 ± 0.034; MMEJ-attributed deletion frequency ([3]; 100 nM): 0.93 ± 0.079; HDR ([4]; 100 nM): 1.31 ± 0.071
O=C(O[C@H]1CN2CCC1CC2)N1CCc2ccccc2[C@@H]1c1ccccc1 [Solifenacin succinate] (in DMSO)	–	–	1.04	1.16	–	–	0.9657 ± 0.0021	0.993 ± 0.015	–	–	0.989 ± 0.091	0.991 ± 0.017	–	–	1.14 ± 0.017	1.06 ± 0.051	–	–	–	–	cell survival ([1]; 1000 nM): 0.907; cell survival ([1]; 2000 nM): 1.06; cell survival ([1]; 5000 nM): 1.1; NHEJ-attributed indel frequency ([2]; 1000 nM): 0.999 ± 0.026; NHEJ-attributed indel frequency ([2]; 2000 nM): 1.01 ± 0.017; NHEJ-attributed indel frequency ([2]; 5000 nM): 0.989 ± 0.032; MMEJ-attributed deletion frequency ([3]; 1000 nM): 0.924 ± 0.054; MMEJ-attributed deletion frequency ([3]; 2000 nM): 0.937 ± 0.033; MMEJ-attributed deletion frequency ([3]; 5000 nM): 1.01 ± 0.12; HDR ([4]; 1000 nM): 1.04 ± 0.12; HDR ([4]; 2000 nM): 1.02 ± 0.015; HDR ([4]; 5000 nM): 1.09 ± 0.039
C1CCN2C[C@@H]3C[C@@H](CN4CCCC[C@@H]34)[C@H]2C1 [Sparteine] (in DMSO)	0.978	1.24	1.05	1.26	0.9845 ± 0.0022	0.98809 ± 0.00026	0.9919 ± 0.0066	0.988 ± 0.035	0.908 ± 0.028	0.866 ± 0.061	1.03 ± 0.086	0.9904 ± 0.0051	1.11 ± 0.044	1.001 ± 0.0048	1.04 ± 0.051	1.02 ± 0.15	–	–	–	–	cell survival ([1]; 100 nM): 1; NHEJ-attributed indel frequency ([2]; 100 nM): 1.01 ± 0.011; MMEJ-attributed deletion frequency ([3]; 100 nM): 0.957 ± 0.098; HDR ([4]; 100 nM): 1.05 ± 0.061
CC[N+](CC)(CC)CC [Tetraethylammonium chloride] (in EtOH)	–	–	–	–	–	–	–	–	–	–	–	–	–	–	–	–	0.979	1.03	1.007 ± 0.01	0.9965 ± 0.0079	cell survival ([1]; 0.2 nM): 0.933; cell survival ([1]; 0.5 nM): 1.09; cell survival ([1]; 1 nM): 0.954; NHEJ-attributed indel frequency ([2]; 0.2 nM): 0.99 ± 0.026; NHEJ-attributed indel frequency ([2]; 0.5 nM): 0.996 ± 0.018; NHEJ-attributed indel frequency ([2]; 1 nM): 0.99607 ± 0.00072; MMEJ-attributed deletion frequency ([3]; 0.2 nM): 1.05 ± 0.022; MMEJ-attributed deletion frequency ([3]; 0.5 nM): 1.03 ± 0.11; MMEJ-attributed deletion frequency ([3]; 1 nM): 0.964 ± 0.1; MMEJ-attributed deletion frequency ([3]; 2 nM): 1.053 ± 0.0031; MMEJ-attributed deletion frequency ([3]; 5 nM): 0.9894 ± 0.0011; HDR ([4]; 0.2 nM): 1.11 ± 0.15; HDR ([4]; 0.5 nM): 1.09 ± 0.19; HDR ([4]; 1 nM): 1.02 ± 0.019; HDR ([4]; 2 nM): 0.961 ± 0.11; HDR ([4]; 5 nM): 0.922 ± 0.038
O=C1NC(=O)[C@@H](c2cn3c4c(cccc24)CCC3)[C@@H]1c1c[nH]c2ccccc12 [Tivantinib (ARQ 197)] (in DMSO)	–	–	0.979	1.04	–	–	0.949 ± 0.045	1.01 ± 0.025	–	–	0.915 ± 0.074	0.98 ± 0.025	–	–	1.01 ± 0.089	1.05 ± 0.015	–	–	–	–	cell survival ([1]; 1000 nM): 0.271; cell survival ([1]; 2000 nM): 0.0426; cell survival ([1]; 5000 nM): 0.0118; NHEJ-attributed indel frequency ([2]; 1000 nM): 1.115 ± 0.0054; NHEJ-attributed indel frequency ([2]; 2000 nM): 1 ± 0.05; NHEJ-attributed indel frequency ([2]; 5000 nM): 0.532 ± 0.069; MMEJ-attributed deletion frequency ([3]; 1000 nM): 1 ± 0.088; MMEJ-attributed deletion frequency ([3]; 2000 nM): 1.48 ± 0.36; MMEJ-attributed deletion frequency ([3]; 5000 nM): 0.786 ± 0.051; HDR ([4]; 1000 nM): 0.897 ± 0.1; HDR ([4]; 2000 nM): 0.507 ± 0.081; HDR ([4]; 5000 nM): 0.281 ± 0.0069
CC[C@@]1(O)C(=O)OCc2c1cc1n(c2=O)Cc2cc3c(CN(C)C)c(O)ccc3nc2-1 [Topotecan] (in DMSO)	0.0825	0.0185	–	–	0.68 ± 0.029	0.625 ± 0.023	–	–	0.595 ± 0.26	0.699 ± 0.15	–	–	0.975 ± 0.16	0.321 ± 0.15	–	–	0.777	0.814	0.951 ± 0.029	0.936 ± 0.04	cell survival ([1]; 10 nM): 0.361; NHEJ-attributed indel frequency ([2]; 10 nM): 0.896 ± 0.032; MMEJ-attributed deletion frequency ([3]; 2 nM): 1.13 ± 0.065; MMEJ-attributed deletion frequency ([3]; 5 nM): 1.04 ± 0.1; MMEJ-attributed deletion frequency ([3]; 10 nM): 0.835 ± 0.1; HDR ([4]; 2 nM): 1.11 ± 0.042; HDR ([4]; 5 nM): 1.07 ± 0.049; HDR ([4]; 10 nM): 0.938 ± 0.035
C[C@@H]1O[C@@H](O[C@@H]2[C@@H](O)[C@H](OCCc3ccc(O)c(O)c3)O[C@H](CO)[C@H]2OC(=O)/C=C/c2ccc(O)c(O)c2)[C@H](O)[C@H](O)[C@H]1O [Verbascoside] (in DMSO)	0.884	1.1	1.11	1.04	0.964 ± 0.014	1.01 ± 0.033	1 ± 0.019	0.975 ± 0.016	1.01 ± 0.02	0.993 ± 0.082	0.976 ± 0.13	1.02 ± 0.087	1.1 ± 0.064	1.13 ± 0.017	1.04 ± 0.044	1.11 ± 0.012	–	–	–	–	cell survival ([1]; 100 nM): 0.99; NHEJ-attributed indel frequency ([2]; 100 nM): 0.994 ± 0.03; MMEJ-attributed deletion frequency ([3]; 100 nM): 1.06 ± 0.06; HDR ([4]; 100 nM): 1.024 ± 0.0069
CC[C@]1(O)C[C@@H]2CN(CCc3c([nH]c4ccccc34)[C@@](C(=O)OC)(c3cc4c(cc3OC)N(C)[C@H]3[C@@](O)(C(=O)OC)[C@H](OC(C)=O)[C@]5(CC)C=CCN6CC[C@]43[C@@H]65)C2)C1 [Vinblastine sulfate] (in DMSO)	0.00294	0.00452	–	–	0.606 ± 0.21	0.498 ± 0.064	–	–	0.779 ± 0.3	0.6333 ± 0.0063	–	–	0.511 ± 0.28	0.302 ± 0.056	–	–	0.687	0.117	1.04 ± 0.018	0.958 ± 0.12	cell survival ([1]; 10 nM): 0.0623; NHEJ-attributed indel frequency ([2]; 10 nM): 0.792 ± 0.39; MMEJ-attributed deletion frequency ([3]; 2 nM): 1.11 ± 0.049; MMEJ-attributed deletion frequency ([3]; 5 nM): 1.08 ± 0.057; MMEJ-attributed deletion frequency ([3]; 10 nM): 1.13 ± 0.55; HDR ([4]; 2 nM): 1.08 ± 0.098; HDR ([4]; 5 nM): 0.737 ± 0.042; HDR ([4]; 10 nM): 0.633 ± 0.4
CC(O)C(=O)O (stereo not given) [lactate] (in H2O)	–	–	1.15	1.08	–	–	0.984 ± 0.021	1.02 ± 0.028	–	–	1.01 ± 0.044	0.849 ± 0.074	–	–	1.02 ± 0.065	0.941 ± 0.056	–	–	–	–	cell survival ([1]; 1000 nM): 0.963; cell survival ([1]; 2000 nM): 1.06; cell survival ([1]; 5000 nM): 1.15; NHEJ-attributed indel frequency ([2]; 1000 nM): 1.04 ± 0.03; NHEJ-attributed indel frequency ([2]; 2000 nM): 0.998 ± 0.047; NHEJ-attributed indel frequency ([2]; 5000 nM): 1 ± 0.013; MMEJ-attributed deletion frequency ([3]; 1000 nM): 0.952 ± 0.094; MMEJ-attributed deletion frequency ([3]; 2000 nM): 1.05 ± 0.096; MMEJ-attributed deletion frequency ([3]; 5000 nM): 1 ± 0.094; HDR ([4]; 1000 nM): 0.946 ± 0.091; HDR ([4]; 2000 nM): 1.01 ± 0.1; HDR ([4]; 5000 nM): 1.005 ± 0.0083
CC[C@]1(O)C[C@@H]2CN(CCc3c([nH]c4ccccc34)[C@@](C(=O)OC)(c3cc4c(cc3OC)N(C)[C@H]3[C@@](O)(C(=O)OC)[C@H](OC(C)=O)[C@]5(CC)C=CCN6CC[C@]43[C@@H]65)C2)C1 [vinblastine] (in DMSO)	0.00549	0.0072	–	–	0.415 ± 0.0047	0.557 ± 0.013	–	–	0.674 ± 0.053	0.827 ± 0.05	–	–	0.249 ± 0.051	0.248 ± 0.035	–	–	0.524	0.114	1.07 ± 0.05	0.982 ± 0.17	cell survival ([1]; 10 nM): 0.0472; NHEJ-attributed indel frequency ([2]; 10 nM): 0.857 ± 0.17; MMEJ-attributed deletion frequency ([3]; 2 nM): 1.02 ± 0.27; MMEJ-attributed deletion frequency ([3]; 5 nM): 1.51 ± 0.71; MMEJ-attributed deletion frequency ([3]; 10 nM): 0.931 ± 0.61; HDR ([4]; 2 nM): 0.877 ± 0.038; HDR ([4]; 5 nM): 0.65 ± 0.05; HDR ([4]; 10 nM): 0.556 ± 0.031
